Laboratory results taken from patent US12540137B2, “N-1 branched alkyl ether substituted imidazo[4,5-c]quinoline compounds, compositions, and methods” (Solventum Intellectual Properties Company, priority 2018, dated 2026).

Key:
[1] = target: T1, human TLR7 (Homo sapiens, UniProt Q9NYK1); assay: TLR activation, HEK-BLUE-hTLR7 SEAP reporter cells; format: cell-based; details: 16-20 hours, SEAP response at least 2× vehicle control, tested 0.01-30 micromolar
T1 construct: host or cells: HEK293 (HEK-BLUE-hTLR7)
T1 sequence (Q9NYK1 27-1049): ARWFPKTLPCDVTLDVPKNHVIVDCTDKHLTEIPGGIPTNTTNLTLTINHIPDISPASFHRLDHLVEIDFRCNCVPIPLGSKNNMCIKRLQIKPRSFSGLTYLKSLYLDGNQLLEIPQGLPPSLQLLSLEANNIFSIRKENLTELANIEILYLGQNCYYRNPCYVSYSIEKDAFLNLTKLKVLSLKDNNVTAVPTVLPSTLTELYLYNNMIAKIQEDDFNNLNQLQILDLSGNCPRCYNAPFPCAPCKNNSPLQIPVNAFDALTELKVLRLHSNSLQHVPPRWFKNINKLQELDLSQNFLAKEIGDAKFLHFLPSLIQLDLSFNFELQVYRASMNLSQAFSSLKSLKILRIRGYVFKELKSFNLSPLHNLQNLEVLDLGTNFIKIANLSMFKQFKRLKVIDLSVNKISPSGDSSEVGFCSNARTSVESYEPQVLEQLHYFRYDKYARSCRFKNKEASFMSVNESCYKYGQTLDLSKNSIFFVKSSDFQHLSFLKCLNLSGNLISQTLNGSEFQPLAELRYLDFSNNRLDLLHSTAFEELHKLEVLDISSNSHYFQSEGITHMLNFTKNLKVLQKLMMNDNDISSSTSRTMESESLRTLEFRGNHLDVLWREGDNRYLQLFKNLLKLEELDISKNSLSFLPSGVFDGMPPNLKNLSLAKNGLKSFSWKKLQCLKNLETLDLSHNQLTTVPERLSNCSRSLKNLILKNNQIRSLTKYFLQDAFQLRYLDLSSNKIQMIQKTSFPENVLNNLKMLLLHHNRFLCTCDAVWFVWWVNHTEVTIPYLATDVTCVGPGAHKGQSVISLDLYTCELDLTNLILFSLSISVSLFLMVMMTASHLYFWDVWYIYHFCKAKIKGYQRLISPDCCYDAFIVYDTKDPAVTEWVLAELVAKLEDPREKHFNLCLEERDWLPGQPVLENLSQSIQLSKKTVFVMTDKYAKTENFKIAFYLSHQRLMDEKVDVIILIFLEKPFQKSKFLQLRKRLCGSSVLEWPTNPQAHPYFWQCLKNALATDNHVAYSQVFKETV
Procedure: (§1) HEK-BLUE-hTLR7 or hTLR8 reporter cells were obtained from InvivoGen, San Diego, CA. According to the manufacturer's description, these reporter cells were prepared by co-transfection of HEK293 cells with an inducible secreted embryonic alkaline phosphatase (SEAP) reporter gene and either the human TLR7 or TLR8 gene. The SEAP reporter gene was placed under the control of an IFN−β minimal promoter fused to five NF-κB and AP-1-binding sites. In the presence of a TLR ligand, activation of NF-κB and AP-1 occurs, resulting in a corresponding increase in SEAP levels.
(§2) In the assay, the HEK cells were grown and maintained using standard cell culture techniques in a growth medium that contained Dulbecco's Modified Eagle Medium (ThermoFisher Scientific Incorporated, Waltham, MA) supplemented with 1% penicillin/streptomycin and 10% heat-inactivated Gibco fetal bovine serum (ThermoFisher Scientific). Each compound was solubilized in DMSO to create a 3 mM stock solution. The stock solution was then further diluted with the growth medium to prepare serial dilutions. Each test compound was tested at a concentration of 30, 10, 3.3, 1.1, 0.37, 0.12, 0.04, and 0.01 micromolar using a 96-well format with 5×10^4 cells and 200 microliters of growth medium per well.
(§3) For each compound, hTLR7, hTLR8, and their respective null control HEK cells were screened. DMSO serially diluted into the growth medium served as the vehicle control. Cell culture supernatants containing the SEAP reporter were collected after an incubation period of 16-20 hours in a cell culture incubator (37° C. and 5% CO2), and either analyzed immediately or stored at −80° C. SEAP levels were measured using the colorimetric enzyme assay (QUANTI-BLUE (InvivoGen) according to manufacturer's instructions.
(§4) Specifically, the minimum effective concentration of each compound (micromolar) was determined as the lowest concentration of the compound that produced a SEAP expression response at least 2× greater than that observed with the vehicle control wells.

[2] = target: T2, human TLR8 (Homo sapiens, UniProt Q9NR97); assay: TLR activation, HEK-BLUE-hTLR8 SEAP reporter cells; format: cell-based; details: 16-20 hours, SEAP response at least 2× vehicle control, tested 0.01-30 micromolar
T2 construct: host or cells: HEK293 (HEK-BLUE-hTLR8)
T2 sequence (Q9NR97 27-1041): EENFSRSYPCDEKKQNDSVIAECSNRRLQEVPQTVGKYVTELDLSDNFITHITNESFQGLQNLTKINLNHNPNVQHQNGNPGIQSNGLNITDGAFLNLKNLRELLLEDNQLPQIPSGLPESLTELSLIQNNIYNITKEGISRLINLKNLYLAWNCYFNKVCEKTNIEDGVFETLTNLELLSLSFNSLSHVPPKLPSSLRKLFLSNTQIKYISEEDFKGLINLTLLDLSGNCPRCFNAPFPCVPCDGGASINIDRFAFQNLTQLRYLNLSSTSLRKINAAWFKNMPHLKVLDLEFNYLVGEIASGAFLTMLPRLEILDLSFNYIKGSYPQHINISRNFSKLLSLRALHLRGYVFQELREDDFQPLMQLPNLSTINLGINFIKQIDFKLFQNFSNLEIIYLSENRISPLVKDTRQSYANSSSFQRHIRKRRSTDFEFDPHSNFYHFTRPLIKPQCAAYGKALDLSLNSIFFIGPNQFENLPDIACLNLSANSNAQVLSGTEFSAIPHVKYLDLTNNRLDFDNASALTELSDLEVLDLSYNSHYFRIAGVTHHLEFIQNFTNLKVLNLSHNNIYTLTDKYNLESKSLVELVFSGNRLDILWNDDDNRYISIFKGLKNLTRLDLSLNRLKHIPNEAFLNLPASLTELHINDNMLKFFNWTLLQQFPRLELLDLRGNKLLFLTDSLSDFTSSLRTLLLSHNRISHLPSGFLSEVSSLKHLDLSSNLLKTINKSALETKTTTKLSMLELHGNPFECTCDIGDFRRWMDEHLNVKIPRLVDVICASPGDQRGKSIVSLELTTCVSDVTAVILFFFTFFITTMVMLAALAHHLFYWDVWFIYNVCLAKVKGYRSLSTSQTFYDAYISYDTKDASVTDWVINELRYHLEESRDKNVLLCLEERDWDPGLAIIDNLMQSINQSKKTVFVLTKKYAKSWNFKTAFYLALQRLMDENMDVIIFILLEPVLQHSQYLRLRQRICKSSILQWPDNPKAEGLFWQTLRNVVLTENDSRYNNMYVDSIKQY
Procedure: as §1, §2, §3, §4

Which “MEC to Produce TLR Activation TLR 7” value [1] does the source give for `CCOC[C@@H](n1cnc2c(N)nc3ccccc3c21)C1(O)CCCC1` [Example 14, 1-[(1R)-1-(4-aminoimidazo[4,5-c]quinolin-1-yl)-2-ethoxy-ethyl]cyclopentanol] here?
The value was 0.04 µM.

And the “MEC to Produce TLR Activation TLR 8” value [2]?
The value was 30 µM.
